Results as given in patent publication US20090143279A1 (priority 2007, published 2009).
Structures can show the parent of a compound that is named as a salt. Where two headings read alike, the source gives them in different places. Where a SMILES comes first, the peptide text is derived from it. The star is where a group is joined. Tfa = O=C(C(F)(F)F)*

Key:
mtOXPHOS transcripts = format: cell-based, mouse; conditions: for mito-OXPHOS Z: Table 7, C2C12 myotubes, 48 h, composite Z-score
OXPHOS gene expression = format: cell-based, mouse
[1] = tested on: mitochondrial membrane potential; format: cell-based, mouse
cytochrome c = format: cell-based, mouse
nuOXPHOS transcripts = format: cell-based, mouse; conditions: for nucOXPHOS Z: Table 7, C2C12 myotubes, 48 h, composite Z-score
reactive oxygen species = format: cell-based, mouse
[2] = tested on: cellular dehydrogenase activity
[3] = composite Z-score vs DMSO wells, Conc 20 μM
[4] = Conc 20 μM, normalized score vs mock-treated (DMSO) wells
[5] = composite Z-score vs mock-treated (DMSO) wells, concentration of each compound in μM
[6] = composite Z-score vs mock-treated (DMSO) wells, Conc 20 μM
[7] = composite Z-score vs DMSO, Conc 20 μM
[8] = normalized composite Z-score vs mock-treated (DMSO) wells, Conc 20 μM

Question: What does the source list for `NCCNC(=O)c1ccc(Cl)cc1` [N-(2-aminoethyl)-4-chlorobenzamide]?
Answer: mitoOX (mtOXPHOS transcripts; [3]): −0.205; GE-HTS (OXPHOS gene expression; [3]): 0.065; ΔΨm [1, 3]: −1.051; cyt c (cytochrome c; [3]): −0.423; nucOX (nuOXPHOS transcripts; [3]): 0.175; Viability (C2C12 myotubes; [3]): −1.090; ROS (reactive oxygen species; [3]): 1.036; MTT [2, 3]: −0.669

Question: For `CC(=O)N[C@@H](CC(=O)O)C(=O)O` [N-acetylaspartic acid], which “mitoOX (composite Z-score)” value (mtOXPHOS transcripts; [4]) is on record?
Answer: −1.046

Question: And the “GE-HTS (composite Z-score)” value (OXPHOS gene expression; [4])?
Answer: −0.670

Question: What about the “ΔΨm (composite Z-score)” value [1, 4] of the same molecule?
Answer: −0.663

Question: What about the “cyt c (composite Z-score)” value (cytochrome c; [4]) of the same molecule?
Answer: 0.753

Question: And the “nucOX (composite Z-score)” value (nuOXPHOS transcripts; [4])?
Answer: −0.436

Question: What about the “Viability (composite Z-score)” value (C2C12 myotubes; [4]) of the same molecule?
Answer: −0.266

Question: What about the “ROS (composite Z-score)” value (reactive oxygen species; [4]) of the same molecule?
Answer: 0.309

Question: And the “MTT (composite Z-score)” value [2, 4]?
Answer: −0.456

Question: Which results are given for `CC(=O)N[C@H]1[C@H]([C@@H](O)[C@@H](O)CO)O[C@@](O)(C(=O)O)C[C@@H]1O` [N-acetylneuramic acid]?
Answer: mitoOX (mtOXPHOS transcripts; [3]): 0.813; GE-HTS (OXPHOS gene expression; [3]): 1.061; ΔΨm [1, 3]: 0.053; cyt c (cytochrome c; [3]): −0.254; nucOX (nuOXPHOS transcripts; [3]): 1.111; Viability (C2C12 myotubes; [3]): 1.009; ROS (reactive oxygen species; [3]): 0.063; MTT [2, 3]: −0.118

Question: `CSCC[C@H](NC=O)C(=O)N[C@@H](CC(C)C)C(=O)N[C@@H](Cc1ccccc1)C(=O)O` [N-formylmethionyl-leucylphenylalanine] was tested. Which mitoOX (mtOXPHOS transcripts; [3]) did it give?
Answer: −0.051

Question: And the GE-HTS (OXPHOS gene expression; [3])?
Answer: −0.370

Question: And the ΔΨm [1, 3]?
Answer: 0.476

Question: And the cyt c (cytochrome c; [3])?
Answer: 0.374

Question: And the nucOX (nuOXPHOS transcripts; [3])?
Answer: −0.517

Question: And the Viability (C2C12 myotubes; [3])?
Answer: 0.354

Question: What about the ROS (reactive oxygen species; [3]) of the same molecule?
Answer: 1.017

Question: What about the MTT [2, 3] of the same molecule?
Answer: −1.240

Question: `CC[C@H](C)[C@H](NC)C(=O)O` [N-methylisoleucine] was tested. Which mitoOX (mtOXPHOS transcripts) did it give?
Answer: 0.850

Question: What about the GE-HTS (OXPHOS gene expression) of the same molecule?
Answer: 0.772

Question: What about the ΔΨm [1] of the same molecule?
Answer: −0.210

Question: What about the cyt c (cytochrome c) of the same molecule?
Answer: −0.451

Question: And the nucOX (nuOXPHOS transcripts)?
Answer: 0.676

Question: What about the Viability (C2C12 myotubes) of the same molecule?
Answer: 1.026

Question: And the ROS (reactive oxygen species)?
Answer: 0.300

Question: And the MTT [2]?
Answer: 0.372

Question: `COc1cc2c(cc1OC)-c1cc3ccc(OC)c(OC)c3c[n+]1CC2` [Palmatine, reference compound] was tested. Which “mito-OXPHOS Z” value (mtOXPHOS transcripts) did it give?
Answer: 1.83

Question: And the mitoOX (mtOXPHOS transcripts; [5])?
Answer: 1.833

Question: And the GE-HTS (OXPHOS gene expression; [5])?
Answer: 1.822

Question: And the ΔΨm [1, 5]?
Answer: −0.823

Question: What about the cyt c (cytochrome c; [5]) of the same molecule?
Answer: −0.084

Question: What about the “nucOXPHOS Z” value (nuOXPHOS transcripts) of the same molecule?
Answer: 1.64

Question: And the nucOX (nuOXPHOS transcripts; [5])?
Answer: 1.636

Question: And the Viability (C2C12 myotubes; [5])?
Answer: −1.028

Question: And the ROS (reactive oxygen species; [5])?
Answer: 0.511

Question: What about the MTT [2, 5] of the same molecule?
Answer: −1.222

Question: What does the source list for `C=C1[C@@H]([C@@]2(C)[C@@H](OC(C)=O)CC(=O)O[C@](C)(COC(C)=O)[C@@H]2C(=O)OC)[C@@H](OC=O)[C@H](OC(=O)[C@H](O)[C@H](C)CC)[C@@]2(C)[C@H](c3ccoc3)CC(=O)[C@]12O` [Prieurianin, reference compound]?
Answer: mito-OXPHOS Z (mtOXPHOS transcripts): 1.93; mitoOX (mtOXPHOS transcripts; [6]): 1.931; GE-HTS (OXPHOS gene expression; [6]): 2.020; ΔΨm [1, 6]: 1.108; cyt c (cytochrome c; [6]): −1.620; nucOXPHOS Z (nuOXPHOS transcripts): 1.90; nucOX (nuOXPHOS transcripts; [6]): 1.896; Viability (C2C12 myotubes; [6]): −0.894; ROS (reactive oxygen species; [6]): −1.358; MTT [2, 6]: −1.263

Question: What does the source list for `COc1ccc(C[C@H](N)C(=O)N[C@H]2[C@@H](O)[C@H](n3cnc4c(N(C)C)ncnc43)O[C@@H]2CO)cc1` [Puromycin, reference compound]?
Answer: mito-OXPHOS Z (mtOXPHOS transcripts): 1.24; mitoOX (mtOXPHOS transcripts; [7]): −1.331; GE-HTS (OXPHOS gene expression; [7]): −3.348; ΔΨm [1, 7]: −3.989; cyt c (cytochrome c; [7]): −5.573; nucOXPHOS Z (nuOXPHOS transcripts): −2.80; nucOX (nuOXPHOS transcripts; [7]): −4.017; Viability (C2C12 myotubes; [7]): −5.718; ROS (reactive oxygen species; [7]): −2.665; MTT [2, 7]: −5.624

Question: With `N[C@@H](CCC(=O)N[C@@H](CSC(CC(=O)O)C(=O)O)C(=O)NCC(=O)O)C(=O)O` (stereo partly drawn) [S-(1,2-dicarboxyethyl)glutathione] as the molecule, how does the mitoOX (mtOXPHOS transcripts; [7]) read?
Answer: −0.219

Question: What about the GE-HTS (OXPHOS gene expression; [7]) of the same molecule?
Answer: −0.364

Question: And the ΔΨm [1, 7]?
Answer: 0.038

Question: And the cyt c (cytochrome c; [7])?
Answer: −0.411

Question: What about the nucOX (nuOXPHOS transcripts; [7]) of the same molecule?
Answer: −0.400

Question: And the Viability (C2C12 myotubes; [7])?
Answer: −0.049

Question: What about the ROS (reactive oxygen species; [7]) of the same molecule?
Answer: 0.258

Question: What about the MTT [2, 7] of the same molecule?
Answer: −0.635

Question: For `CC(=O)O.CSC(=N)NCCC[C@H](N)C(=O)O` [S-methyl-L-thiocitrulline acetate], which mitoOX (mtOXPHOS transcripts; [5]) is on record?
Answer: 0.173

Question: And the GE-HTS (OXPHOS gene expression; [5])?
Answer: 0.291

Question: And the ΔΨm [1, 5]?
Answer: −0.542

Question: And the cyt c (cytochrome c; [5])?
Answer: 0.533

Question: What about the nucOX (nuOXPHOS transcripts; [5]) of the same molecule?
Answer: 0.325

Question: And the Viability (C2C12 myotubes; [5])?
Answer: 0.613

Question: And the ROS (reactive oxygen species; [5])?
Answer: 0.052

Question: What about the MTT [2, 5] of the same molecule?
Answer: −0.262

Question: For `CC(C)[C@H](NC(=O)[C@H](Cc1ccc(O)cc1)NC(=O)[C@@H](NC(=O)C(F)(F)F)C(C)C)C(=O)O` [TFA-Val-Tyr-Val-OH] (Tfa-Val-Tyr-Val-OH), which mitoOX (mtOXPHOS transcripts; [5]) is on record?
Answer: −0.008

Question: What about the GE-HTS (OXPHOS gene expression; [5]) of the same molecule?
Answer: 0.294

Question: And the ΔΨm [1, 5]?
Answer: −0.510

Question: And the cyt c (cytochrome c; [5])?
Answer: −0.785

Question: And the nucOX (nuOXPHOS transcripts; [5])?
Answer: 0.415

Question: And the Viability (C2C12 myotubes; [5])?
Answer: −0.143

Question: What about the ROS (reactive oxygen species; [5]) of the same molecule?
Answer: 0.471

Question: What about the MTT [2, 5] of the same molecule?
Answer: −1.019

Question: For `C=C/C(C)=C\CC1C(C)(O)CCC2C(C)(C)CCCC21C` (stereo not drawn) [abienol], which mitoOX (mtOXPHOS transcripts; [8]) is on record?
Answer: 1.214

Question: And the GE-HTS (OXPHOS gene expression; [8])?
Answer: 0.498

Question: And the ΔΨm [1, 8]?
Answer: 0.334

Question: And the cyt c (cytochrome c; [8])?
Answer: 0.211

Question: And the nucOX (nuOXPHOS transcripts; [8])?
Answer: 0.091

Question: And the Viability (C2C12 myotubes; [8])?
Answer: −0.199

Question: And the ROS (reactive oxygen species; [8])?
Answer: 2.467

Question: What about the MTT [2, 8] of the same molecule?
Answer: 0.338
